Data taken from PubChem BioAssay AID1259411 (Chemical Carcinogenesis Research Information System (CCRIS), 2018).
Activity calls are given as the source filed them. How the calls were made is not given here.

Tested on: rodent carcinogenicity bioassays, tumor incidence
Assay: CCRIS carcinogenicity studies
In short: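 NCI-built, expert-reviewed records of carcinogenicity and related test outcomes (mutagenicity, tumor promotion/inhibition) compiled from published and report sources, historical span 1985-2011, not updated.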

SMILES: CCOP(=O)(SC(C)CC)N1CCSC1=O (centres undefined)
- carcinogen call (Species: Mouse, Strain/Sex: CD-1/Female (60/Group), Route: Oral, Dose: 0, 1.11, 3.20, 10.4, 39.2 mg/kg/day of 93.3% fosthiazate in diet for 104 wk, study duration 102 wk, Dose: 0, 1.11, 3.20, 10.4, 39.2 mg/kg/day of 93.3% fosthiazate in diet for 104 wk, study duration 102 wk): inactive; negative
- carcinogen call (Species: Mouse, Strain/Sex: CD-1/Male (60/Group), Route: Oral, Dose: 0, 1.02, 3.10, 10.3, 30.5 mg/kg/day of 93.3% fosthiazate in diet for 104 wk, study duration 102 wk, Dose: 0, 1.02, 3.10, 10.3, 30.5 mg/kg/day of 93.3% fosthiazate in diet for 104 wk, study duration 102 wk): inactive; negative
- carcinogen call (Species: Rat, Strain/Sex: CD/Female (50/Group), Route: Oral, Dose: 0, 0.051, 0.50, 2.45, 11.69 mg/kg/day of 93.3% fosthiazate in diet for 104 wk, study duration 104 wk, Dose: 0, 0.051, 0.50, 2.45, 11.69 mg/kg/day of 93.3% fosthiazate in diet for 104 wk, study duration 104 wk): inactive; negative
- carcinogen call (Species: Rat, Strain/Sex: CD/Male (50/Group), Route: Oral, Dose: 0, 0.039, 0.38, 1.94, 8.34 mg/kg/day of 93.3% fosthiazate in diet for 104 wk, study duration 104 wk, Dose: 0, 0.039, 0.38, 1.94, 8.34 mg/kg/day of 93.3% fosthiazate in diet for 104 wk, study duration 104 wk): inactive; negative

SMILES: CCN(Cc1cccc(S(=O)(=O)O)c1)c1ccc(C(=C2C=CC(=[N+](CC)Cc3cccc(S(=O)(=O)O)c3)C=C2)c2ccc(O)cc2S(=O)(=O)[O-])cc1
- carcinogen call (Species: MOUSE, Strain/Sex: SWISS-WEBSTER/FEMALE, Route: DERMAL, Dose: 0, 1% IN 0.1 ML DISTILLED WATER 1/WK FOR 19.5 MO (STUDY DURATION: 19.5 MO)): inactive; negative
- carcinogen call (Species: MOUSE, Strain/Sex: SWISS-WEBSTER/MALE, Route: DERMAL, Dose: 0, 1% IN 0.1 ML DISTILLED WATER 1/WK FOR 19.5 MO (STUDY DURATION: 19.5 MO)): inactive; negative
- carcinogen call (Species: RAT, Strain/Sex: FISCHER/FEMALE, Route: SUBCUTANEOUS, Dose: 0, 0.5 ML OF 3% SOLUTION IN DISTILLED WATER (0; 15 MG) 2/WK FOR 26 WK THEN 1/WK FOR 22 WK (STUDY DURATION: 11 MO), Dose: 0, 0.5 ML OF 3% SOLUTION IN DISTILLED WATER (0; 15 MG) 2/WK FOR 26 WK THEN 1/WK FOR 22 WK (STUDY DURATION: 11 MO), Tumor Site: Type of Lesion: INJECTION SITE: FIBROSARCOMA): active; positive
- carcinogen call (Species: RAT, Strain/Sex: FISCHER/FEMALE, Route: SUBCUTANEOUS, Dose: 0, 0.5 ML OF 6% SOLUTION IN DISTILLED WATER (0; 30 MG) 2/WK FOR 19 WK THEN 3% SOLUTION (0; 15 MG) 2/WK FOR 9 WK FOLLOWED, Dose: 0, 0.5 ML OF 6% SOLUTION IN DISTILLED WATER (0; 30 MG) 2/WK FOR 19 WK THEN 3% SOLUTION (0; 15 MG) 2/WK FOR 9 WK FOLLOWED, Tumor Site: Type of Lesion: INJECTION SITE: FIBROSARCOMA): active; positive

SMILES: NCCCCCCCCCCC(=O)O
- carcinogen call (Species: MOUSE, Strain/Sex: B6C3F1/FEMALE, Route: ORAL, Dose: 0, 7500, 15000 PPM IN DIET FOR 103 WK (STUDY DURATION: 103 WK), Dose: 0, 7500, 15000 PPM IN DIET FOR 103 WK (STUDY DURATION: 103 WK)): inactive; negative
- carcinogen call (Species: MOUSE, Strain/Sex: B6C3F1/MALE, Route: ORAL, Dose: 0, 7500, 15000 PPM IN DIET FOR 103 WK (STUDY DURATION: 103 WK), Dose: 0, 7500, 15000 PPM IN DIET FOR 103 WK (STUDY DURATION: 103 WK), Tumor Site: Type of Lesion: HEMATOPOIETIC SYSTEM: MALIGNANT LYMPHOMA): equivocal
- carcinogen call (Species: RAT, Strain/Sex: F344/FEMALE, Route: ORAL, Dose: 0, 7500, 15000 PPM IN DIET FOR 104 WK (STUDY DURATION: 104 WK), Dose: 0, 7500, 15000 PPM IN DIET FOR 104 WK (STUDY DURATION: 104 WK)): inactive; negative
- carcinogen call (Species: RAT, Strain/Sex: F344/MALE, Route: ORAL, Dose: 0, 7500, 15000 PPM IN DIET FOR 104 WK (STUDY DURATION: 104 WK), Dose: 0, 7500, 15000 PPM IN DIET FOR 104 WK (STUDY DURATION: 104 WK), Tumor Site: Type of Lesion: LIVER: NEOPLASTIC NODULE, URINARY BLADDER: TRANSITIONAL CELL CARCINOMA): active; positive

SMILES: O=[N+]([O-])c1ccc(OC2CO2)cc1 (centres undefined)
- carcinogen call (Species: MOUSE, Strain/Sex: B6C3F1/MALE, Route: INTRAPERITONEAL, Dose: 0, 60 NMOL/G BW IN 10 µL TRIOCTANOIN ONCE (STUDY DURATION: 10 MO), Tumor Site: Type of Lesion: LIVER: HEPATOMA): active; positive

SMILES: CCO[Si](CCC1CCC2OC2C1)(OCC)OCC (centres undefined)
- carcinogen call (Species: MOUSE, Strain/Sex: C3H/MALE, Route: DERMAL, Dose: 0, 2 MG IN ACETONE 3/WK FOR DURATION OF STUDY (STUDY DURATION: LIFETIME)): inactive; negative

SMILES: CCn1cc(C(=O)O)c(=O)c2cc(F)c(N3CCNCC3)cc21
- carcinogen call (Species: Rat, Strain/Sex: F344/Male (15/Group), Route: Oral, Dose: 0, 750, 1500 mg/kg daily for 3 wks after 2/3rd partial hepatectomy, from 2 wks after carcinogen dosing, 500 ppm phenobar, Tumor Site: Type of Lesion: Liver): inactive; negative

SMILES: CCCCN(CCCC(=O)O)N=O
- carcinogen call (Species: MOUSE, Strain/Sex: B6D2F1/FEMALE, Route: ORAL, Dose: 0, 565 MG/L IN DRINKING WATER FOR 13 WK (STUDY DURATION: 28 WK), Tumor Site: Type of Lesion: URINARY BLADDER: TUMOR): active; positive
- carcinogen call (Species: MOUSE, Strain/Sex: B6D2F1/MALE, Route: ORAL, Dose: 0, 565 MG/L IN DRINKING WATER FOR 13 WK (STUDY DURATION: 28 WK), Tumor Site: Type of Lesion: URINARY BLADDER: TUMOR): active; positive

SMILES: O=C1Nc2ccc(Cl)cc2C(c2ccccc2)=NC1O (centres undefined)
- carcinogen call (Species: MOUSE, Strain/Sex: B6C3F1/FEMALE, Route: ORAL, Dose: 0, 125, 2500, 5000 PPM IN FEED FOR 104-105 WK (STUDY DURATION: 105 WK), Dose: 0, 125, 2500, 5000 PPM IN FEED FOR 104-105 WK (STUDY DURATION: 105 WK), Tumor Site: Type of Lesion: LIVER: HEPATOBLASTOMA, HEPATOCELLULAR ADENOMA, HEPATOCELLULAR CARCINOMA, THYROID: FOLLICULAR CELL ADENOMA): active; positive
- carcinogen call (Species: MOUSE, Strain/Sex: B6C3F1/MALE, Route: ORAL, Dose: 0, 125, 2500, 5000 PPM IN FEED FOR 104-105 WK (STUDY DURATION: 105 WK), Dose: 0, 125, 2500, 5000 PPM IN FEED FOR 104-105 WK (STUDY DURATION: 105 WK), Tumor Site: Type of Lesion: LIVER: HEPATOBLASTOMA, HEPATOCELLULAR ADENOMA, HEPATOCELLULAR CARCINOMA): active; positive
- carcinogen call (Species: MOUSE, Strain/Sex: SWISS-WEBSTER/FEMALE, Route: ORAL, Dose: 0, 2500, 5000 PPM IN FEED FOR 57 WK (STUDY DURATION: 57 WK), Dose: 0, 2500, 5000 PPM IN FEED FOR 57 WK (STUDY DURATION: 57 WK), Tumor Site: Type of Lesion: LIVER: HEPATOCELLULAR ADENOMA, HEPATOCELLULAR CARCINOMA): active; positive
- carcinogen call (Species: MOUSE, Strain/Sex: SWISS-WEBSTER/MALE, Route: ORAL, Dose: 0, 2500, 5000 PPM IN FEED FOR 57 WK (STUDY DURATION: 57 WK), Dose: 0, 2500, 5000 PPM IN FEED FOR 57 WK (STUDY DURATION: 57 WK), Tumor Site: Type of Lesion: LIVER: HEPATOCELLULAR ADENOMA, HEPATOCELLULAR CARCINOMA): active; positive
- carcinogen call (Species: MOUSE, Strain/Sex: SWISS/MALE,FEMALE, Route: ORAL, Dose: 0.05, 0.15% IN DIET FOR 9 MO, Tumor Site: Type of Lesion: LIVER: HEPATOCELLULAR ADENOMA): active; positive
- carcinogen call (Species: RAT, Strain/Sex: F344/FEMALE, Route: ORAL, Dose: 0, 625, 2500, 5000 PPM FOR 105 WK (STUDY DURATION: 105 WK), Dose: 0, 625, 2500, 5000 PPM FOR 105 WK (STUDY DURATION: 105 WK)): inactive; negative
- carcinogen call (Species: RAT, Strain/Sex: F344/FEMALE, Route: ORAL, Dose: 0, 625, 2500, 5000 PPM IN DIET FOR 105 WK (STUDY DURATION: 105 WK), Dose: 0, 625, 2500, 5000 PPM IN DIET FOR 105 WK (STUDY DURATION: 105 WK)): inactive; negative
- carcinogen call (Species: RAT, Strain/Sex: F344/FEMALE, Route: ORAL, Dose: 0, 10,000 PPM FOR 26 WK (STUDY DURATION: 105 WK)): inactive; negative
- carcinogen call (Species: RAT, Strain/Sex: F344/FEMALE, Route: ORAL, Dose: 0, 10000 PPM IN DIET FOR 26 WK (STUDY DURATION: 105 WK)): inactive; negative
- carcinogen call (Species: RAT, Strain/Sex: F344/MALE, Route: ORAL, Dose: 0, 625, 2500, 5000 PPM IN DIET FOR 105 WK (STUDY DURATION: 105 WK), Dose: 0, 625, 2500, 5000 PPM IN DIET FOR 105 WK (STUDY DURATION: 105 WK), Tumor Site: Type of Lesion: KIDNEY: RENAL TUBULE ADENOMA): equivocal
- carcinogen call (Species: RAT, Strain/Sex: F344/MALE, Route: ORAL, Dose: 0, 10000, PPM IN DIET FOR 26 WK (STUDY DURATION: 105 WK), Dose: 0, 10000, PPM IN DIET FOR 26 WK (STUDY DURATION: 105 WK), Tumor Site: Type of Lesion: KIDNEY: RENAL TUBULE ADENOMA): equivocal
- carcinogen call (Species: RAT, Strain/Sex: F344/MALE, Route: ORAL, Dose: 0, 10,000 PPM FOR 26 WK (STUDY DURATION: 105 WK), Tumor Site: Type of Lesion: KIDNEY: RENAL TUBULE ADENOMA): active; positive
